Targets include Mu-type opioid receptor (Homo sapiens, UniProt P35372); D(3) dopamine receptor (Homo sapiens, UniProt P35462); Histamine H3 receptor (Homo sapiens, UniProt Q9Y5N1); D(1A) dopamine receptor (Homo sapiens, UniProt P21728).
Assay [1] deals with T1, 5-hydroxytryptamine receptor 1A (Homo sapiens, UniProt P08908).
T1 sequence (P08908 whole entry): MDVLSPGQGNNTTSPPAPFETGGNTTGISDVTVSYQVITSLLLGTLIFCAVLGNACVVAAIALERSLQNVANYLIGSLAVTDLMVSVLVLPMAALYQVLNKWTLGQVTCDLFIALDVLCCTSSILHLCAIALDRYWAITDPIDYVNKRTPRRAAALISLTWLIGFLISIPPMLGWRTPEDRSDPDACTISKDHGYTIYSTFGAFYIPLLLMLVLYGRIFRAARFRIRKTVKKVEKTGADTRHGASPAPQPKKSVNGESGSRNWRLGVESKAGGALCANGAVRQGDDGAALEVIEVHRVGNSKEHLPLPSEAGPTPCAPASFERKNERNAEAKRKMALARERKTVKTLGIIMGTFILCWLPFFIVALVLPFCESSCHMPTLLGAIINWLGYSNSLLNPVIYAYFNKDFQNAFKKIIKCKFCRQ

The target in assay [2] is T2, Thromboxane A2 receptor (Homo sapiens, UniProt P21731).
T2 sequence (P21731 whole entry): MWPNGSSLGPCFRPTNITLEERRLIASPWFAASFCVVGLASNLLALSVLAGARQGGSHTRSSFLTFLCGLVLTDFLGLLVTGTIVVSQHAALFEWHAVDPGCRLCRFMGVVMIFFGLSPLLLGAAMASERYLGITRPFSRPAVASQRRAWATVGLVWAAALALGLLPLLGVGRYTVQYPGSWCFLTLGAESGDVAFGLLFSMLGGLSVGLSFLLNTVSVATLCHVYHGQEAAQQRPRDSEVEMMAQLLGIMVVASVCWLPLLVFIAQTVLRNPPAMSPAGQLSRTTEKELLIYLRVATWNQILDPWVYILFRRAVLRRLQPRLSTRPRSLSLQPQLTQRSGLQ
It is filed as functional, cell-based.

In assay [3] the target is 3',5'-cyclic-AMP phosphodiesterase 4A (Homo sapiens, UniProt P27815). It is filed as functional.
Assay [4] addresses Sodium-dependent noradrenaline transporter (Homo sapiens, UniProt P23975).
For assay [5], the target named is Sodium-dependent dopamine transporter (Homo sapiens, UniProt Q01959).
Another assay concerns the target Acetylcholinesterase (Homo sapiens, UniProt P22303). It counts as functional.
The target in assay [6] is T2, Thromboxane A2 receptor. It is filed as functional, cell-based. The source holds these as a separate data set.
Assay [7] has as its target T3, Muscarinic acetylcholine receptor M2 (Homo sapiens, UniProt P08172).
T3 sequence (P08172 whole entry): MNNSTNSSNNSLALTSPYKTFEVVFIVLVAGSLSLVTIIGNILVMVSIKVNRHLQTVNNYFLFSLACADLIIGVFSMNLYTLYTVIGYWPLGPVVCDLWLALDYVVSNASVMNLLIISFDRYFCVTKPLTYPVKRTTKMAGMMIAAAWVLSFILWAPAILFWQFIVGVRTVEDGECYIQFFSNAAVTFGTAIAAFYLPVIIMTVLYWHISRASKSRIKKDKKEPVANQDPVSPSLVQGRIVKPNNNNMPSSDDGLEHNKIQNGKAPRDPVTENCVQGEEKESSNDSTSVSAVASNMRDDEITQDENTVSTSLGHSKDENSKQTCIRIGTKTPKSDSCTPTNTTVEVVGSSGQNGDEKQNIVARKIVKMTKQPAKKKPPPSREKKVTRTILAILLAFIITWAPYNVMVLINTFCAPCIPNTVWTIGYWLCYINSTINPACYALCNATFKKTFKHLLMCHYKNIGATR

Assay [8] concerns the target 5-hydroxytryptamine receptor 2B (Homo sapiens, UniProt P41595). It counts as functional, cell-based.
Assay [9] has as its target T4, Prostaglandin G/H synthase 1 (Homo sapiens, UniProt P23219). It is filed as functional.
In assay [10] the target is cGMP-inhibited 3',5'-cyclic phosphodiesterase 3A (Homo sapiens, UniProt Q14432). It counts as functional.
The target in assay [11] is Voltage-gated inwardly rectifying potassium channel KCNH2 (Homo sapiens, UniProt Q12809). It counts as functional. As to conditions: read-out: AC50.
The target of assay [12] is T5, Amine oxidase [flavin-containing] A (Homo sapiens, UniProt P21397).
T5 sequence (P21397 whole entry): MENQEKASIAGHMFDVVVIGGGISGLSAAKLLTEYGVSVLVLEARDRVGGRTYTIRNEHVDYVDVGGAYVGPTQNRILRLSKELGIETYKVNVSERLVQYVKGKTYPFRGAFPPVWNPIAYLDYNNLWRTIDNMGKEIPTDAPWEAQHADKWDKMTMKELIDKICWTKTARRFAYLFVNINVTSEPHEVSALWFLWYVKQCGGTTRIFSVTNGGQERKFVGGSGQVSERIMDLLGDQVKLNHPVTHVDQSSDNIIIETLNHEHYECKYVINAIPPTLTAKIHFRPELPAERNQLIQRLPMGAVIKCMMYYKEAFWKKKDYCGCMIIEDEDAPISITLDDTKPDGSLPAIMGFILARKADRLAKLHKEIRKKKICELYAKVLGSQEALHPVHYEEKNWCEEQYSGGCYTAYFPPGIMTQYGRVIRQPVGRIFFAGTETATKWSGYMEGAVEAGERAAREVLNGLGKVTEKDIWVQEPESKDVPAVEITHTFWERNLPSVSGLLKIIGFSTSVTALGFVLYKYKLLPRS
It is filed as functional.

The target of assay [13] is T4, Prostaglandin G/H synthase 1. It counts as functional. The source holds these as a separate data set.

Usually AC50 stands for the concentration giving half of the maximal activity seen.

Structures are written as SMILES. Where only a bound is given, the exact number is not on record here.
Further: assay procedure not described here.

Chain of Sodium-dependent noradrenaline transporter (P23975 whole entry): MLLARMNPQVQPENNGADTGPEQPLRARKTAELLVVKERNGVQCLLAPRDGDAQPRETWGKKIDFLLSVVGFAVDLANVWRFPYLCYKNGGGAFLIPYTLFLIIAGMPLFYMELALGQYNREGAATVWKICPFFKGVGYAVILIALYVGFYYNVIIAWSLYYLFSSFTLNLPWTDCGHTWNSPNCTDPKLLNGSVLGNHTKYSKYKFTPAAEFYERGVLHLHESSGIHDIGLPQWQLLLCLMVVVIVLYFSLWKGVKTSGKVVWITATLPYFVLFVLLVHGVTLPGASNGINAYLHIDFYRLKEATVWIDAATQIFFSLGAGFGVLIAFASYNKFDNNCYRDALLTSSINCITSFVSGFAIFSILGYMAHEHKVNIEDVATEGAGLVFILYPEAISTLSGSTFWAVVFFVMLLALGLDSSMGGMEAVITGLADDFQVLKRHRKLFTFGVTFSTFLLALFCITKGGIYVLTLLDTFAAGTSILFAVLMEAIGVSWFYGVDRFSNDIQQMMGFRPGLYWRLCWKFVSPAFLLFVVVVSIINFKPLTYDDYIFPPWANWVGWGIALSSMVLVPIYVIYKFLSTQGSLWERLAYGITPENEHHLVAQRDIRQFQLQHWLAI
Chain of Mu-type opioid receptor (P35372 whole entry): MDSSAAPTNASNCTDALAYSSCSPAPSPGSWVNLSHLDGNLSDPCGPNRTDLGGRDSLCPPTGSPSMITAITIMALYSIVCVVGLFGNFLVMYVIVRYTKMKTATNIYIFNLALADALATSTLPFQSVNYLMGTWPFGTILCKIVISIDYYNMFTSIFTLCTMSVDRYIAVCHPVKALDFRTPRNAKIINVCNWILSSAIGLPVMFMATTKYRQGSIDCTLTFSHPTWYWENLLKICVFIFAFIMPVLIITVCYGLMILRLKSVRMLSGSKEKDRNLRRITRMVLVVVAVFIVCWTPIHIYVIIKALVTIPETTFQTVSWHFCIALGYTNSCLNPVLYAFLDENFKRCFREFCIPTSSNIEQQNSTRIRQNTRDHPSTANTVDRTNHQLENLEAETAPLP
Chain of Acetylcholinesterase (P22303 whole entry): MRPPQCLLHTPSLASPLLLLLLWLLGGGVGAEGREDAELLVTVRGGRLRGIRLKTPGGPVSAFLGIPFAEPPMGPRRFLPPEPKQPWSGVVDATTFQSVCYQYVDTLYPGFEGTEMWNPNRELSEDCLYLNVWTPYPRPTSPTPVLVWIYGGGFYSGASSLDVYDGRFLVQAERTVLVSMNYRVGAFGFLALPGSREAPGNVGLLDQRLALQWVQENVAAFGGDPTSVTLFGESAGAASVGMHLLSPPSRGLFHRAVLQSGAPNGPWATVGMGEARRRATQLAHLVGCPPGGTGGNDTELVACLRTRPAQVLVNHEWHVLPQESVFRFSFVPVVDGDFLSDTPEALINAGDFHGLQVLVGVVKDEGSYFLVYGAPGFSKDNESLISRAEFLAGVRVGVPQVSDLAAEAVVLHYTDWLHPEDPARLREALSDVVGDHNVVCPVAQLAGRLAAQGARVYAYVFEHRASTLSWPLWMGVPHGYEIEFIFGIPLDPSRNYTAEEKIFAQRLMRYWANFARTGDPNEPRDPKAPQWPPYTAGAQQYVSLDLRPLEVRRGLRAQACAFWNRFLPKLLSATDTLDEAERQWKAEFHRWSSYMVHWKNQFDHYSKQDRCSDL
Chain of D(1A) dopamine receptor (P21728 whole entry): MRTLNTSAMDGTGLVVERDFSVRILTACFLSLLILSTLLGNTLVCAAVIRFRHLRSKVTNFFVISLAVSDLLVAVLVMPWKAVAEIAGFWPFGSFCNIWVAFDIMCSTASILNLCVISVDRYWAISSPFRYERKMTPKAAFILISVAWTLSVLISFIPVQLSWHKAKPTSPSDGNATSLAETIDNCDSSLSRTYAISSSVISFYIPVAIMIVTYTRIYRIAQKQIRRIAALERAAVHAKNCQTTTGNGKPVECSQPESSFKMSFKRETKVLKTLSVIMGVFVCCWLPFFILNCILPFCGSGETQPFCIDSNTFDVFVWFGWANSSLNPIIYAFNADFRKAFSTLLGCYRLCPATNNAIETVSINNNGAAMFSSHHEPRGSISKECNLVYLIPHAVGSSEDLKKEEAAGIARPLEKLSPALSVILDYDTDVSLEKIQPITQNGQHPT
Chain of Sodium-dependent dopamine transporter (Q01959 whole entry): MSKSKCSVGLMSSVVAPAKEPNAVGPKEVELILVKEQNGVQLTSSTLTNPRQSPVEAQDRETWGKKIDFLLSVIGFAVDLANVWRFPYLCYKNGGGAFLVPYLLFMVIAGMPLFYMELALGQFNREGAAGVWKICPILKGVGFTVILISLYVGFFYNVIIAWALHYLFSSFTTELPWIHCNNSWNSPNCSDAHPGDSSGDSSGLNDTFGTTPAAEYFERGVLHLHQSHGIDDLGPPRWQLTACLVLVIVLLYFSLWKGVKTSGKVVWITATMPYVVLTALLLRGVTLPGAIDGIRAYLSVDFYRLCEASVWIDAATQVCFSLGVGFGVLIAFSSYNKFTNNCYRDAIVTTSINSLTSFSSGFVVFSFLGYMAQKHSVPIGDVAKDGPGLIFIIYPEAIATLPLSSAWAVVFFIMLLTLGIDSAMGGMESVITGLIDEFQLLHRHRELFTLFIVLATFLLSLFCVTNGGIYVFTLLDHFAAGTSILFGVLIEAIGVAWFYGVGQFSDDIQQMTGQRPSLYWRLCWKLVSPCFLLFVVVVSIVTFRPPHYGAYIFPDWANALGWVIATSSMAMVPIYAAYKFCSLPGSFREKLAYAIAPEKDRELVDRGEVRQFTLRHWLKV
Chain of 5-hydroxytryptamine receptor 2B (P41595 whole entry): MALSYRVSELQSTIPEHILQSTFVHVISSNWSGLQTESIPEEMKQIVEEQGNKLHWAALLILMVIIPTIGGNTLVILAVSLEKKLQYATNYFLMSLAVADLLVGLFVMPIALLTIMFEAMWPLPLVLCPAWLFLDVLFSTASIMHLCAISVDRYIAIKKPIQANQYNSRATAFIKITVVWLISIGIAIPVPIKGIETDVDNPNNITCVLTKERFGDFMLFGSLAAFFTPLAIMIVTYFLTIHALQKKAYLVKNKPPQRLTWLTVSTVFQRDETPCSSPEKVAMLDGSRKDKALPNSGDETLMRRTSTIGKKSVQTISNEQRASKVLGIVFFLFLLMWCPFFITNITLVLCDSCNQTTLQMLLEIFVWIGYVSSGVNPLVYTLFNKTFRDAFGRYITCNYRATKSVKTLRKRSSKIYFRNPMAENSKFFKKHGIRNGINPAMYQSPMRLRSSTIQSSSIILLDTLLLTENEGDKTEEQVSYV
T4 sequence (P23219 whole entry): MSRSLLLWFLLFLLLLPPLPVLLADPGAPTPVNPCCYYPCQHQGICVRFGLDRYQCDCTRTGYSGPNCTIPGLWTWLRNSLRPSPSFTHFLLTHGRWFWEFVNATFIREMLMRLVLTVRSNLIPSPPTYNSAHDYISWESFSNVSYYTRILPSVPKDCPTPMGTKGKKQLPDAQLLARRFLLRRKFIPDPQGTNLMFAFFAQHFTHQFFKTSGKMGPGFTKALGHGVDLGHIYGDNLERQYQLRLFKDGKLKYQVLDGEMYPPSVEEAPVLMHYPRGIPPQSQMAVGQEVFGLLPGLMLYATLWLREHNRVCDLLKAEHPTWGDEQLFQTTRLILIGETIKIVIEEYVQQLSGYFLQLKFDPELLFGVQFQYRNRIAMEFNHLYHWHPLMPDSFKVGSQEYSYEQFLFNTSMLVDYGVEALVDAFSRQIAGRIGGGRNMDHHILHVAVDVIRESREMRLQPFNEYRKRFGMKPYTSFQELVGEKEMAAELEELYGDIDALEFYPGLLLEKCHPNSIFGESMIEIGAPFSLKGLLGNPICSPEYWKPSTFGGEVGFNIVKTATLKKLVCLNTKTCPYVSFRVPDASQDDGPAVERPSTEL
Chain of Histamine H3 receptor (Q9Y5N1 whole entry): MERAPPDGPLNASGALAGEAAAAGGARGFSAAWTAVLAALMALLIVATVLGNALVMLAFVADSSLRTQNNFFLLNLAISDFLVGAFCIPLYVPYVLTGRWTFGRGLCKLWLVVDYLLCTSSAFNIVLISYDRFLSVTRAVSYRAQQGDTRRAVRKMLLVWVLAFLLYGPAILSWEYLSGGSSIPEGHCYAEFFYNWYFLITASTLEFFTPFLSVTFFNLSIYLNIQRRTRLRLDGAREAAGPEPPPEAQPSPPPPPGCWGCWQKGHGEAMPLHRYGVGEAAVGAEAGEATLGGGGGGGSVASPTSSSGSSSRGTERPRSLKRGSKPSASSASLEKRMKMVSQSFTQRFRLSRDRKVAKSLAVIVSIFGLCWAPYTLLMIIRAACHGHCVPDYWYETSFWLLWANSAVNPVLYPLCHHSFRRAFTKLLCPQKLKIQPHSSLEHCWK
Chain of D(3) dopamine receptor (P35462 whole entry): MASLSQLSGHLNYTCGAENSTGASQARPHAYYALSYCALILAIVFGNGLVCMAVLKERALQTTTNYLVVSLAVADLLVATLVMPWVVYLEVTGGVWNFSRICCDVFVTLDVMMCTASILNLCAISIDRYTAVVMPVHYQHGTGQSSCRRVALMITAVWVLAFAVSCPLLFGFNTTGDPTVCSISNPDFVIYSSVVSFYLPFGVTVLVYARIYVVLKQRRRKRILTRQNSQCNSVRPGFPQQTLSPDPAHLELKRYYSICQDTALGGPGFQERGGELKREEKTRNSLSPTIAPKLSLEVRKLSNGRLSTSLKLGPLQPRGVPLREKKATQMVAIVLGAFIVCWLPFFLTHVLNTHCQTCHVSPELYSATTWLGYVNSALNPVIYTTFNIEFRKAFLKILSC

As for `CN(CC(=O)O)C(=N)N` [CREATINE], the AC50 (in assay [1]; on Thromboxane A2 receptor [2]; in assay [3]; in assay [4]; in [5]; on Acetylcholinesterase) was more than 30 µM throughout. The half-maximal activity concentration (AC50) (on Thromboxane A2 receptor [6]; in assay [7]; in assay [8]; in assay [9]; at Mu-type opioid receptor; in [10]) was more than 30 µM in each case. The AC50 (on D(3) dopamine receptor; in assay [11]; on Histamine H3 receptor; in assay [12]; in [13]; on D(1A) dopamine receptor) was more than 30 µM in each case.
In the case of `C[C@]12CC[C@@H]3c4ccc(O)cc4CC[C@H]3[C@@H]1CC[C@@H]2OC(=O)CCC1CCCC1` [ESTRADIOL CYPIONATE], the AC50 in assay [1] was more than 30 µM; at Thromboxane A2 receptor [2] it was more than 30 µM; in assay [3], 17.6 µM; in assay [4] it was more than 30 µM; in [5], more than 30 µM; on Acetylcholinesterase, more than 30 µM. Further, the concentration at half-maximal activity (AC50) on Thromboxane A2 receptor [6] is more than 30 µM; in assay [7] it was more than 30 µM; in assay [8], more than 30 µM; in [9], more than 30 µM; at Mu-type opioid receptor it was more than 30 µM; in [10], 12.5 µM. Also, the AC50 on D(3) dopamine receptor was more than 30 µM; in assay [11] it was more than 30 µM; at Histamine H3 receptor, more than 30 µM; in assay [12], more than 30 µM; in assay [13] it was 4.37 µM; on D(1A) dopamine receptor it was more than 30 µM.
For `CC1(C)O[C@@H]2C[C@H]3[C@@H]4CCC5=CC(=O)CC[C@]5(C)[C@@]4(F)[C@@H](O)C[C@]3(C)[C@]2(C(=O)CCl)O1` [HALCINONIDE], the half-maximal activity concentration (AC50) (in [1]; at Thromboxane A2 receptor [2]; in [3]; in assay [4]; in [5]; at Acetylcholinesterase) was more than 30 µM each time. The AC50 (at Thromboxane A2 receptor [6]; in assay [7]; in assay [8]; in [9]; on Mu-type opioid receptor; in assay [10]) was more than 30 µM in each case. In addition, the AC50 (at D(3) dopamine receptor; in [11]; on Histamine H3 receptor; in assay [12]; in assay [13]; at D(1A) dopamine receptor) was more than 30 µM throughout.
With `N=C(N)NCc1cccc([123I])c1` [IOBENGUANE I 123], the AC50 is 2.49 µM in assay [1]; more than 30 µM at Thromboxane A2 receptor [2]; more than 30 µM in assay [3]; 8.75 µM in assay [4]; 6.39 µM in [5]; more than 30 µM at Acetylcholinesterase. Further, the concentration at half-maximal activity (AC50) at Thromboxane A2 receptor [6] was more than 30 µM; in [7], more than 30 µM; in assay [8], more than 30 µM; in assay [9] it was more than 30 µM; at Mu-type opioid receptor, 22 µM; in assay [10] it was more than 30 µM. Besides, the half-maximal activity concentration (AC50) is 8.17 µM on D(3) dopamine receptor; more than 30 µM in assay [11]; more than 30 µM on Histamine H3 receptor; 26.4 µM in assay [12]; more than 30 µM in assay [13]; 13.4 µM at D(1A) dopamine receptor.
In the case of `C=C1c2c(Cl)ccc(O)c2C(=O)C2=C(O)[C@]3(O)C(=O)C(C(N)=O)=C(O)[C@@H](N(C)C)[C@@H]3[C@@H](O)[C@H]12` [MECLOCYCLINE], the AC50 (in assay [1]; on Thromboxane A2 receptor [2]; in [3]; in [4]; in [5]; at Acetylcholinesterase) was more than 30 µM throughout. Besides, the AC50 (at Thromboxane A2 receptor [6]; in [7]; in assay [8]; in [9]; on Mu-type opioid receptor; in assay [10]) was more than 30 µM each time. Besides, the half-maximal activity concentration (AC50) (at D(3) dopamine receptor; in [11]; on Histamine H3 receptor; in [12]; in [13]; at D(1A) dopamine receptor) was more than 30 µM each time.
In the case of `Cc1cc2c(OCC(O)CNC(C)C)cccc2[nH]1` (stereo unspecified) [MEPINDOLOL], the AC50 in assay [1] was 0.0041 µM; on Thromboxane A2 receptor [2], more than 30 µM; in assay [3], more than 30 µM; in assay [4], 5.31 µM; in assay [5], more than 30 µM; at Acetylcholinesterase, more than 30 µM. For the same compound, the AC50 at Thromboxane A2 receptor [6] was more than 30 µM; in [7] it was more than 30 µM; in assay [8] it was more than 30 µM; in assay [9] it was 10.9 µM; on Mu-type opioid receptor, 21 µM; in assay [10], more than 30 µM. Moreover, the concentration at half-maximal activity (AC50) at D(3) dopamine receptor was 19.9 µM; in [11], more than 30 µM; at Histamine H3 receptor it was more than 30 µM; in [12], more than 30 µM; in assay [13], 15.2 µM; on D(1A) dopamine receptor it was more than 30 µM.
For the compound `CCOc1cc(N)c(Cl)cc1C(=O)NCC1CN(Cc2ccc(F)cc2)CCO1` (stereo unspecified) [MOSAPRIDE], the AC50 in [1] was 5.18 µM; on Thromboxane A2 receptor [2] it was more than 30 µM; in [3], more than 30 µM; in [4] it was more than 30 µM; in [5] it was more than 30 µM; at Acetylcholinesterase it was more than 30 µM. Also, the AC50 (at Thromboxane A2 receptor [6]; in assay [7]; in assay [8]; in assay [9]; on Mu-type opioid receptor; in assay [10]) was more than 30 µM in each case. In addition, the half-maximal activity concentration (AC50) on D(3) dopamine receptor is 6.86 µM; in assay [11], more than 30 µM; on Histamine H3 receptor, more than 30 µM; in assay [12], more than 30 µM; in assay [13], more than 30 µM; at D(1A) dopamine receptor, more than 30 µM.
